According to publication PMC5413848, “Optimization of intestinal microsomal preparation in the rat: A systematic approach to assess the influence of various methodologies on metabolic activity and scaling factors” (Biopharmaceutics & Drug Disposition, 2017):
Where two headings read alike, the source gives them in different places.

How the values were obtained:
[1] = Nonspecific protein binding in rat intestinal microsomes (96-well micro-equilibrium dialysis)
Protocol: Nonspecific protein binding was determined in microsomes (1 mg/ml) using high throughput 96‐well micro‐equilibrium dialysis methodology (HTDialysis, LLC, Gales Ferry, CT, USA). These experiments used dialysis membrane strips with 12–14 kDa molecular mass cut‐off (HTDialysis). The microsomes were constituted in 0.1 M phosphate buffer (pH 7.4). The final concentrations of the test compounds was 1 μM. Microsomes containing the test compound were aliquoted into donor wells in triplicate, and buffer placed in the acceptor wells. The plate was incubated at 37°C and left to equilibrate on a plate shaker (450 rpm) for 4 h. Samples from both the acceptor and donor sides of the membrane were then transferred to 96‐well plates and quenched in acetonitrile containing internal standard (AZ1). The same sample preparation and LC–MS/MS methodology was used as described for the microsomal incubations. Compound MS transitions and retention times are reported in Supplemental material Table 3. Fuinc was calculated as the ratio of acceptor to donor both normalized for internal standard as described previously 41. Correction for protein binding for depletion experiments undertaken at 0.5 mg/ml were made using Equation (4).
(4) fumic,2=1/[P]mic,2/Pmic,1×1−fumic,1/fumic,1+1
where mic,1 denotes 1 mg/ml and mic,2 is 0.5 mg/ml.

in vitro = details: for microsomal CLint at 1 μM: Han-Wistar, rat, in-house combined cofactors
Protocol: (§1) Microsomes prepared previously via the optimized method (preparation method 8) were combined to form pool 1 (n = 9 rats). A second set of three preparations was combined to form pool 2 (n = 9 rats). Intestinal microsomes were also prepared from intestinal tissue flash‐frozen in tubes on arrival in the laboratory and kept at −80°C until thawing on ice on the morning of preparation, (n = 3 occasions of n = 3 samples). In addition, for comparative purposes microsomes were also prepared from scraped intestinal tissues. Microsomes were prepared after cutting along the length of intestine and gently scraping the intestinal epithelial with a glass microscope slide (n = 1 occasion, n = 3 samples). Commercially available pooled intestinal microsomes were also used as a comparator to those produced in‐house. […] The microsomes were stored at −80°C prior to experiments.
The microsomes prepared from the final optimized preparation method (method 8) were measured for CYP content on the day of preparation prior to storage. These microsomes (n = 3 samples prepared on n = 3 separate occasions) were subsequently thawed on ice and pooled for pool 1. The pool 1 microsomes were then assayed for testosterone and 4‐NP metabolite formation. Additional intestinal microsomes were created using the identical methodology with the same number of rat intestinal samples (n = 3 samples prepared on n = 3 occasions) and assayed for testosterone and 4‐NP metabolite formation as well as for CYP content on the day of preparation before storage. The microsomes from this second set of preparations were then thawed and pooled to form pool 2.
(§2) Midazolam and 7‐hydroxycoumarin were both incubated at 1 mg/ml and 0.5 mg/ml. The microsomes were incubated on ice with alamethacin (50 μg/mg) for 15 min. […] The samples were quenched with ice cold acetonitrile (3:1 quench to sample) containing the internal standard (AZ1). The total incubation time was 40 min. Quenched samples were stored overnight at −20°C. The following day, the samples were diluted with 200 μl UPH2O, and spun at 3000 rpm (Sorvall legend RT centrifuge) for 15 min, and 200 μl of supernatant taken for analysis.

[2] = Substrate depletion in commercial Han Wistar rat intestinal microsomes, combined or individual CYP and UGT cofactors; details: for microsomal CLint at 1 μM: male, Han Wistar, rat, pH 7.4, CL int,u, Commercial Han Wistar pool
Protocol: as §1, §2

[3] = In vitro-in vivo extrapolation of rat intestinal unbound intrinsic clearance (CL int,u,gut); format: in vitro ADME; details: for CL int,u,gut, Combined in-house pools: mean of pool 1 and pool 2 CL int,u and scaling factors; for CL int,u,gut, Pool 1 Mean: pool 1, pool specific scaling factors; for CL int,u,gut, Pool 1 Mean / CL int,u,gut, Pool 2 Mean: threshold 0.01 l/h; for CL int,u,gut, Pool 2 Mean: pool 2, pool specific scaling factors
Source text: The CL int,u values were scaled to give CL int,u,gut using scaling factors for the corresponding microsomal pool (Eq. (5)). The use of scalars from the mean of both pools was also investigated, and was also used for scaling of commercial microsome CL int,u data.
(5) CLint,u,G=CLuint⋅MPPGI⋅Intestine Segment Weight

[4] = microsomes, pH 7.4, CL int,u, Pool 1
[5] = microsomes, pH 7.4, CL int,u, Pool 2
[6] = commercial Han Wistar microsomes, individual cofactors
[7] = CYP cofactors, 1 mg/ml, 1 μM compound, CYP cofactors only
[8] = Combined cofactors, 1 mg/ml, 1 μM compound, combined CYP and UGT cofactors
[9] = UGT cofactors, 1 mg/ml, 1 μM compound, UGT cofactors only
[10] = rat intestinal microsomes 1 mg/ml, compound 1 μM
[11] = rat intestinal microsomes, in-house pool 1, pH 7.4, CL int,u, Pool 1, pool 1, 1 mg/ml, 1 μM compound, CYP and UGT cofactors

Compound | fuinc ([1]; rat, 4 h, 1 μM, pH 7.4) | microsomal CLint at 1 μM (in vitro; [4]) [µL/min/mg] | microsomal CLint at 1 μM (in vitro; [5]) [µL/min/mg] | CL int,u,gut, Mean Han Wistar commercial microsomes [3] [L/h] | fuinc [1, 10] | CL int,u,gut, Combined in-house pools [3] [L/h] | CL int,u,gut, Pool 1 Mean [3] [L/h] | other results
O=c1ccc2ccc(O)cc2o1 [7‐Hydroxycoumarin] | 1.00 | 196 | 264 | 0.07 |  |  |  | Predicted protein binding at 0.5 mg/ml from data measured at 1 mg/ml [1]: 1.00; Microsomal binding ([1]; rat, 4 h, 1 μM, pH 7.4): 0%; Main route of elimination (CYP vs UGT cofactors) [2, 6]: glucuronidation; microsomal CLint at 1 μM [2, 7]: 0.9 µL/min/mg; microsomal CLint at 1 μM [2, 8]: 272 µL/min/mg; microsomal CLint at 1 μM [2, 9]: 327 µL/min/mg
CN(C)CCC=C1c2ccccc2CCc2ccccc21 [Amitriptyline] |  |  |  |  | 0.20 | 0.01 | 0.01 | microsomal CLint at 1 μM (in vitro; [11]): 24.3 µL/min/mg; microsomal CLint at 1 μM (in vitro; rat intestinal microsomes, in-house pool 2, pH 7.4, CL int,u, Pool 2, pool 2, 1 mg/ml, 1 μM compound, CYP and UGT cofactors): 19.9 µL/min/mg; Main route of elimination (CYP vs UGT cofactors) [2, 6]: comparable; Agreement of additive individual cofactor CL int,u with combined cofactor CL int,u ([2]; commercial microsomes, eight compounds): outside 2‐fold range; microsomal CLint at 1 μM [2, 7]: 5.3 µL/min/mg; microsomal CLint at 1 μM [2, 8]: 23.8 µL/min/mg; microsomal CLint at 1 μM [2, 9]: 3 µL/min/mg
CC(C)NCC(O)COc1ccc(COCCOC(C)C)cc1 (stereo not shown) [Bisporolol] |  |  |  |  | 0.89 | 0.02 | 0.01 | CL int,u, in-house combined cofactors, Pool 1 (in vitro; pool 1, 1 mg/ml, 1 μM compound, CYP and UGT cofactors): 5.4 µL/min/mg; CL int,u, in-house combined cofactors, Pool 2 (in vitro; pool 2, 1 mg/ml, 1 μM compound, CYP and UGT cofactors): < 0.1 µL/min/mg; CL int,u,gut, Pool 2 Mean [3]: 0.03 L/h
CCCCNc1cc(C(=O)O)cc(S(N)(=O)=O)c1Oc1ccccc1 [Bumetanide] | 0.92 |  |  |  |  |  |  | 
O=C1CC2(CCCC2)CC(=O)N1CCCCN1CCN(c2ncccn2)CC1 [Buspirone] |  |  |  |  |  |  |  | microsomal CLint at 1 μM (in vitro; microsomes, pH 7.4, CL int,u, Pool 1, pool 1, 1 mg/ml, 1 μM compound, CYP and UGT cofactors): 3.2 µL/min/mg; microsomal CLint at 1 μM (in vitro; microsomes, pH 7.4, CL int,u, Pool 2, pool 2, 1 mg/ml, 1 μM compound, CYP and UGT cofactors): 1.4 µL/min/mg
O=C(O)Cc1ccccc1Nc1c(Cl)cccc1Cl [Diclofenac] | 0.98 |  |  |  |  |  |  | 
COc1ccc([C@@H]2Sc3ccccc3N(CCN(C)C)C(=O)[C@@H]2OC(C)=O)cc1 [Diltiazem] | 0.85 | 21.8 | 26.7 |  |  |  |  | 
COc1ccc2c(c1)c(CC(=O)O)c(C)n2C(=O)c1ccc(Cl)cc1 [Indomethacin] | 0.88 | 48.9 | 62.4 | 0.22 |  |  |  | 
CC(C)Oc1ccc2c(=O)c(-c3ccccc3)coc2c1 [Ipriflavone] | 0.28 | 495 | 416 | 0.05 |  |  |  | Predicted protein binding at 0.5 mg/ml from data measured at 1 mg/ml ([1]; rat, 4 h, 1 μM, pH 7.4): 0.43; Main route of elimination (CYP vs UGT cofactors) [2]: CYP mediated metabolism; microsomal CLint at 1 μM ([2]; microsomes, CYP cofactors): 59.1 µL/min/mg; microsomal CLint at 1 μM ([2]; microsomes, Combined cofactors): 72 µL/min/mg; microsomal CLint at 1 μM ([2]; microsomes, UGT cofactors): 7.3 µL/min/mg
CCCCC1=NC2(CCCC2)C(=O)N1Cc1ccc(-c2ccccc2-c2nnn[nH]2)cc1 [Irbesartan] | 0.79 | 31.9 | 35.9 | 0.03 |  |  |  | Main route of elimination (CYP vs UGT cofactors) [2, 6]: glucuronidation; microsomal CLint at 1 μM [2, 7]: 1.5 µL/min/mg; microsomal CLint at 1 μM [2, 8]: 15.2 µL/min/mg; microsomal CLint at 1 μM [2, 9]: 9.4 µL/min/mg
COc1ccc2[nH]c([S+]([O-])Cc3ncc(C)c(OC)c3C)nc2c1 (stereo not shown) [Omeprazole] |  |  |  |  | 0.90 | 0.01 | 0.01 | microsomal CLint at 1 μM (in vitro; [11]): 7.6 µL/min/mg; CL int,u,gut, Pool 2 Mean [3]: 0.01 L/h
CN1CCN(CC(=O)N2c3ccccc3C(=O)Nc3cccnc32)CC1 [Pirenzepine] | 1.00 | 3.9 | 2.7 | 3.21 |  |  |  | Microsomal binding ([1]; rat, 4 h, 1 μM, pH 7.4): 0%
O=C(c1ccc(OCCN2CCCCC2)cc1)c1c(-c2ccc(O)cc2)sc2cc(O)ccc12 [Raloxifene] | 0.06 |  |  |  |  |  |  | 
CCCc1nn(C)c2c(=O)[nH]c(-c3cc(S(=O)(=O)N4CCN(C)CC4)ccc3OCC)nc12 [Sildenafil] | 0.73 | 23.8 | 18.4 |  |  |  |  | 
CCC(C)(C)C(=O)O[C@H]1C[C@@H](C)C=C2C=C[C@H](C)[C@H](CC[C@@H]3C[C@@H](O)CC(=O)O3)[C@H]21 [Simvastatin] |  |  |  |  | 0.93 | 1.38 | 1.08 | CL int,u,gut, Pool 2 Mean [3]: 1.57 L/h
C=CC[C@@H]1/C=C(\C)C[C@H](C)C[C@H](OC)[C@H]2O[C@@](O)(C(=O)C(=O)N3CCCC[C@H]3C(=O)O[C@H](/C(C)=C/[C@@H]3CC[C@@H](O)[C@H](OC)C3)[C@H](C)[C@@H](O)CC1=O)[C@H](C)C[C@@H]2OC [Tacrolimus] |  |  |  |  | 0.32 | 59.22 | 37.77 | Predicted protein binding at 0.5 mg/ml from data measured at 1 mg/ml ([1]; rat, 4 h, 1 μM, pH 7.4): 0.48; microsomal CLint at 1 μM (in vitro; rat intestinal microsomes, in-house pool 1, pH 7.4, CL int,u, Pool 1, pool 1, incubated at 0.5 mg/ml (footnote b), 1 μM compound): 465 µL/min/mg; microsomal CLint at 1 μM (in vitro; rat intestinal microsomes, in-house pool 2, pH 7.4, CL int,u, Pool 2, pool 2, incubated at 0.5 mg/ml (footnote b), 1 μM compound): 413 µL/min/mg; CL int,u,gut, Pool 2 Mean [3]: 77.09 L/h
